Assay results published in ChEMBL document CHEMBL3885861, “Open TG-GATES”.

Species: Rattus norvegicus
Assay: Open TG-GATES - Regimen: Daily Repeat
Assay type: toxicity, organism-based, Sprague-Dawley
Set-up: regimen Daily Repeat, gender Male, age 6 weeks
Conditions: in vivo, po, route gavage; for APTT / Bas / Eos / Fbg / Ht / Lym / MCH / MCHC / MCV / Mono / Neu / Plat / RBC / Ret / WBC: tissue Blood; for ALP / ALT / AST / BUN / CRE / DBIL / GLC / IP / K / LDH / Na / PL / RALB / TBIL / TC / TG / TP / gamma-GTP: tissue Plasma
[1] = 0 mg/kg, 72 h, dose level Control, time 3 day
[2] = 0 mg/kg, […], dose level Control, time 7 day
[3] = 0 mg/kg, […], dose level Control, time 14 day
[4] = 0 mg/kg, […], dose level Control, time 28 day
[5] = 45 mg/kg, 72 h, dose level Low, time 3 day
[6] = 45 mg/kg, […], dose level Low, time 7 day
[7] = 45 mg/kg, […], dose level Low, time 14 day
[8] = 45 mg/kg, […], dose level Low, time 28 day

CCCC(CCC)C(=O)O [VALPROIC ACID]
TERMINAL_BW [1]: 222 g | APTT [1]: 18.8 s | Bas [1]: 0% | Eos [1]: 1% | Fbg [1]: 222.8 mg/dL | Ht [1]: 37.7% | Lym [1]: 82.2% | MCH [1]: 21.3 pg | MCHC [1]: 34.2% | MCV [1]: 62.3 fL | Mono [1]: 3.4% | Neu [1]: 12.8% | Plat [1]: 135 x10_4/uL | RBC [1]: 604.8 x10_4/ul | Ret [1]: 6.6% | WBC [1]: 101 x10_2/uL | ALP [1]: 1099.6 IU/L | ALT [1]: 35.6 IU/L | AST [1]: 65.4 IU/L | BUN [1]: 16.2 mg/dL | CRE [1]: 0.4 mg/dL | DBIL [1]: 0.062 mg/dL | GLC [1]: 216.2 mg/dL | IP [1]: 8 mg/dL | K [1]: 4.1 meq/L | LDH [1]: 206.6 IU/L | Na [1]: 140.8 meq/L | PL [1]: 145.2 mg/dL | RALB [1]: 3.3 g/dL | TBIL [1]: 0.1 mg/dL | TC [1]: 71.6 mg/dL | TG [1]: 84.6 mg/dL | TP [1]: 5.4 g/dL | gamma-GTP [1]: 0.8 IU/L | TERMINAL_BW [2]: 256.3 g | TERMINAL_BW [3]: 316.1 g | TERMINAL_BW [4]: 396.1 g | APTT [2]: 19.2 s | Bas [2]: 0% | Eos [2]: 1% | Fbg [2]: 210.8 mg/dL | Ht [2]: 40.7% | Lym [2]: 83.8% | MCH [2]: 21.2 pg | MCHC [2]: 34.3% | MCV [2]: 61.9 fL | Mono [2]: 2.6% | Neu [2]: 12.4% | Plat [2]: 132.8 x10_4/uL | RBC [2]: 658.4 x10_4/ul | Ret [2]: 5.8% | WBC [2]: 96.1 x10_2/uL | APTT [3]: 18.3 s | Bas [3]: 0% | Eos [3]: 1% | Fbg [3]: 228.2 mg/dL | Ht [3]: 40.9% | Lym [3]: 78.6% | MCH [3]: 20.7 pg | MCHC [3]: 35.2% | MCV [3]: 58.9 fL | Mono [3]: 2.4% | Neu [3]: 17.6% | Plat [3]: 140.4 x10_4/uL | RBC [3]: 695 x10_4/ul | Ret [3]: 4.7% | WBC [3]: 114.6 x10_2/uL | APTT [4]: 19.4 s | Bas [4]: 0% | Eos [4]: 1% | Fbg [4]: 227.8 mg/dL | Ht [4]: 42.7% | Lym [4]: 83% | MCH [4]: 19.2 pg | MCHC [4]: 34.9% | MCV [4]: 55.1 fL | Mono [4]: 2.2% | Neu [4]: 12.8% | Plat [4]: 108.4 x10_4/uL | RBC [4]: 775.4 x10_4/ul | Ret [4]: 2.6% | WBC [4]: 129.7 x10_2/uL | ALP [2]: 909.6 IU/L | ALT [2]: 33.6 IU/L | AST [2]: 66 IU/L | BUN [2]: 17.2 mg/dL | CRE [2]: 0.4 mg/dL | DBIL [2]: 0.08 mg/dL | GLC [2]: 223.2 mg/dL | IP [2]: 8 mg/dL | K [2]: 3.8 meq/L | LDH [2]: 199.6 IU/L | Na [2]: 141 meq/L | PL [2]: 146.2 mg/dL | RALB [2]: 3.4 g/dL | TBIL [2]: 0.1 mg/dL | TC [2]: 68.8 mg/dL | TG [2]: 106.4 mg/dL | TP [2]: 5.5 g/dL | gamma-GTP [2]: 1.2 IU/L | ALP [3]: 946.4 IU/L | ALT [3]: 34.8 IU/L | AST [3]: 64.4 IU/L | BUN [3]: 19 mg/dL | CRE [3]: 0.4 mg/dL | DBIL [3]: 0.098 mg/dL | GLC [3]: 231.4 mg/dL | IP [3]: 7.1 mg/dL | K [3]: 3.6 meq/L | LDH [3]: 198.8 IU/L | Na [3]: 140.6 meq/L | PL [3]: 166 mg/dL | RALB [3]: 3.5 g/dL | TBIL [3]: 0.1 mg/dL | TC [3]: 77 mg/dL | TG [3]: 137.2 mg/dL | TP [3]: 5.9 g/dL | gamma-GTP [3]: 1.2 IU/L | ALP [4]: 657.8 IU/L | ALT [4]: 34.8 IU/L | AST [4]: 64.4 IU/L | BUN [4]: 17.6 mg/dL | CRE [4]: 0.5 mg/dL | DBIL [4]: 0.088 mg/dL | GLC [4]: 208.8 mg/dL | IP [4]: 6.9 mg/dL | K [4]: 3.9 meq/L | LDH [4]: 175.2 IU/L | Na [4]: 140.2 meq/L | PL [4]: 150.6 mg/dL | RALB [4]: 3.5 g/dL | TBIL [4]: 0.1 mg/dL | TC [4]: 66.4 mg/dL | TG [4]: 155 mg/dL | TP [4]: 6.1 g/dL | gamma-GTP [4]: 1 IU/L | TERMINAL_BW [5]: 226.4 g | APTT [5]: 18.3 s | Bas [5]: 0% | Eos [5]: 1% | Fbg [5]: 221.6 mg/dL | Ht [5]: 38.6% | Lym [5]: 78% | MCH [5]: 21.7 pg | MCHC [5]: 34.2% | MCV [5]: 63.3 fL | Mono [5]: 3.4% | Neu [5]: 17% | Plat [5]: 137.5 x10_4/uL | RBC [5]: 609.4 x10_4/ul | Ret [5]: 7.3% | WBC [5]: 105.8 x10_2/uL | ALP [5]: 892.6 IU/L | ALT [5]: 36 IU/L | AST [5]: 69 IU/L | BUN [5]: 15.4 mg/dL | CRE [5]: 0.4 mg/dL | DBIL [5]: 0.076 mg/dL | GLC [5]: 210.4 mg/dL | IP [5]: 8.7 mg/dL | K [5]: 4 meq/L | LDH [5]: 217.4 IU/L | Na [5]: 140.8 meq/L | PL [5]: 160.4 mg/dL | RALB [5]: 3.4 g/dL | TBIL [5]: 0.1 mg/dL | TC [5]: 78.4 mg/dL | TG [5]: 84.2 mg/dL | TP [5]: 5.5 g/dL | gamma-GTP [5]: 1.4 IU/L | TERMINAL_BW [6]: 255.3 g | TERMINAL_BW [7]: 314.8 g | TERMINAL_BW [8]: 407 g | APTT [6]: 19 s | Bas [6]: 0% | Eos [6]: 1% | Fbg [6]: 211.6 mg/dL | Ht [6]: 40.1% | Lym [6]: 82.6% | MCH [6]: 21.3 pg | MCHC [6]: 34.4% | MCV [6]: 62 fL | Mono [6]: 3% | Neu [6]: 12.8% | Plat [6]: 133.3 x10_4/uL | RBC [6]: 647.4 x10_4/ul | Ret [6]: 5.7% | WBC [6]: 143.8 x10_2/uL | APTT [7]: 18.3 s | Bas [7]: 0% | Eos [7]: 1% | Fbg [7]: 229.2 mg/dL | Ht [7]: 41.1% | Lym [7]: 83.8% | MCH [7]: 20.7 pg | MCHC [7]: 35% | MCV [7]: 59.1 fL | Mono [7]: 2.6% | Neu [7]: 12.2% | Plat [7]: 130 x10_4/uL | RBC [7]: 695.4 x10_4/ul | Ret [7]: 4.7% | WBC [7]: 113.4 x10_2/uL | APTT [8]: 19.9 s | Bas [8]: 0% | Eos [8]: 1.4% | Fbg [8]: 214.2 mg/dL | Ht [8]: 42.1% | Lym [8]: 82.8% | MCH [8]: 19.6 pg | MCHC [8]: 35.1% | MCV [8]: 55.8 fL | Mono [8]: 2% | Neu [8]: 13.2% | Plat [8]: 112.1 x10_4/uL | RBC [8]: 755.6 x10_4/ul | Ret [8]: 2.7% | WBC [8]: 101.3 x10_2/uL | ALP [6]: 833.2 IU/L | ALT [6]: 35.2 IU/L | AST [6]: 65.6 IU/L | BUN [6]: 16.2 mg/dL | CRE [6]: 0.4 mg/dL | DBIL [6]: 0.084 mg/dL | GLC [6]: 219.6 mg/dL | IP [6]: 8.2 mg/dL | K [6]: 3.7 meq/L | LDH [6]: 193.8 IU/L | Na [6]: 140.2 meq/L | PL [6]: 143.4 mg/dL | RALB [6]: 3.4 g/dL | TBIL [6]: 0.1 mg/dL | TC [6]: 73.2 mg/dL | TG [6]: 86.4 mg/dL | TP [6]: 5.6 g/dL | gamma-GTP [6]: 1.6 IU/L | ALP [7]: 914.4 IU/L | ALT [7]: 34.8 IU/L | AST [7]: 65.8 IU/L | BUN [7]: 17.2 mg/dL | CRE [7]: 0.4 mg/dL | DBIL [7]: 0.086 mg/dL | GLC [7]: 234 mg/dL | IP [7]: 7.5 mg/dL | K [7]: 4 meq/L | LDH [7]: 192 IU/L | Na [7]: 141.2 meq/L | PL [7]: 151.2 mg/dL | RALB [7]: 3.3 g/dL | TBIL [7]: 0.1 mg/dL | TC [7]: 74.4 mg/dL | TG [7]: 106 mg/dL | TP [7]: 5.8 g/dL | gamma-GTP [7]: 0.8 IU/L | ALP [8]: 660.2 IU/L | ALT [8]: 37.4 IU/L | AST [8]: 65 IU/L | BUN [8]: 19 mg/dL | CRE [8]: 0.4 mg/dL | DBIL [8]: 0.1 mg/dL | GLC [8]: 200 mg/dL | IP [8]: 6.8 mg/dL | K [8]: 3.8 meq/L | LDH [8]: 168.2 IU/L | Na [8]: 141.4 meq/L | PL [8]: 147.2 mg/dL | RALB [8]: 3.4 g/dL | TBIL [8]: 0.2 mg/dL | TC [8]: 63.8 mg/dL | TG [8]: 158.4 mg/dL
